# Data: patent US12319679B2, “Morpholinyl, piperazinyl, oxazepanyl and diazepanyl O-glycoprotein-2-acetamido-2-deoxy-3-d-glucopyranosidase inhibitors” (BIOGEN MA INC., priority 2018, dated 2025)
# Where a name gives a salt, the structure may show the parent alone.
# Molecular target: T1, Recombinant full length human OGA enzyme (Homo sapiens, UniProt O60502)
# T1 construct: Recombinant full length human OGA enzyme was purchased from Origene; purchased Origene
# T1 sequence (O60502 1-916): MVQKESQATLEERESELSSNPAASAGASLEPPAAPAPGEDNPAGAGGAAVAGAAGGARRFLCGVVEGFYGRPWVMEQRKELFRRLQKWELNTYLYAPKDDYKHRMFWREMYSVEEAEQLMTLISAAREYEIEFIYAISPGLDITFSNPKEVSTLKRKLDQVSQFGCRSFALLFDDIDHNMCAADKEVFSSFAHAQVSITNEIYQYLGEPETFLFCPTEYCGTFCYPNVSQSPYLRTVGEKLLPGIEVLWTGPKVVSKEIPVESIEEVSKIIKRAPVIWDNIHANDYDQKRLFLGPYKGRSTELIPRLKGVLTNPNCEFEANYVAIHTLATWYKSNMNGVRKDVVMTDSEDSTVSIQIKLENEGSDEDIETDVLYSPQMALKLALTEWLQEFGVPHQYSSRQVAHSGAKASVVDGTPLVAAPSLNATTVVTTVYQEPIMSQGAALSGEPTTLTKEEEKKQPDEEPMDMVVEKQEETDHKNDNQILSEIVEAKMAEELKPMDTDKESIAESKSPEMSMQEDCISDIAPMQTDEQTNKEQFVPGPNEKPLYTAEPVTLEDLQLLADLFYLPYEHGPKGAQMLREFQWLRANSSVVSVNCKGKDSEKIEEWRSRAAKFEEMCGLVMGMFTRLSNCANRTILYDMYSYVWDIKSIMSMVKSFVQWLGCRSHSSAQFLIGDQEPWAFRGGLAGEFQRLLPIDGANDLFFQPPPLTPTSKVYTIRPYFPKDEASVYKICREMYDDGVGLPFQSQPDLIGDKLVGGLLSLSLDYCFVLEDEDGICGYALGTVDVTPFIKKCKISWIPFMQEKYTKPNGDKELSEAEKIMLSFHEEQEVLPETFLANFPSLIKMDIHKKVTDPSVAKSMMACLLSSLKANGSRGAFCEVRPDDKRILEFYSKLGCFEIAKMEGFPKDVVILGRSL
# Assay: OGA Enzyme Inhibition Biochemical Assay
# Conditions: 1 nM OGA, 100 μM 4-MUGlcNAc (Km), pH 6.4, 90 minutes at room temperature; 10-point dose-response starting from 20 μM
# Experimental: OGA Enzyme Inhibition Biochemical Assay
# Recombinant full length human OGA enzyme was purchased from Origene. 4-MUGlCNAc substrate was purchased from Sigma. All other reagents were purchased from Sigma or Fisher. Assay buffer consists of the McIlvaine buffer system, pH 6.4 (0.2M Na2HPO4 mixed with 0.1M citric acid) and 0.01% BSA. Reactions consist of 1 nM OGA, 100 μM 4-MUGlcNAc (Km), and compound in a final volume of 10 μl. Reactions were incubated for 90 minutes at room temperature and quenched with 40 μl of 3M glycine, pH 10 and read on a Perkin Elmer Envision plate reader (Ex: 355 nm/Em: 460 nm). Compounds were tested with a 10-point dose-response starting from 20 μM with a 4-fold dilution. Data was fit using GraphPad Prism using a 4-paramter fit with variable slope.
row,IC50,SMILES
1,0.0049 µM,COc1cc(C[C@@H]2CN(Cc3cnc(NC(C)=O)s3)[C@@H](C)CN2C)ccn1 [Example 2-18]
2,> 20 µM,"CC(=O)Nc1ncc(CN2CCN(C)[C@H](Cc3ccnc(C)c3)C2)s1 [Example 4-9, (R)—N-(5-((4-methyl-3-((2-methylpyridin-4-yl)methyl)piperazin-1-yl)methyl)thiazol-2-yl)acetamide]"
3,0.2 µM,"CC(=O)Nc1ncc(CN2CCO[C@H](Cc3cc(C)c(F)cn3)C2)s1 [Example 1-18, (R)—N-(5-((2-((5-fluoro-4-methylpyridin-2-yl)methyl)morpholino)methyl)thiazol-2-yl)acetamide]"
4,0.021 µM,"CC(=O)Nc1ncc(CN2C[C@@H](COc3cc(C)nc(C)c3)NC[C@@H]2C)s1 [Example 3-1, N-(5-(((2S,5S)-5-(((2,6-dimethylpyridin-4-yl)oxy)methyl)-2-methylpiperazin-1-yl)methyl)thiazol-2-yl)acetamide]"
5,1.6 µM,"CC(=O)Nc1ncc(CN2CCN(C)[C@H](Cc3cc(C)nc(C)c3)C2)s1 [Example 4-3, (R)—N-(5-((3-((2,6-dimethylpyridin-4-yl)methyl)-4-methylpiperazin-1-yl)methyl)thiazol-2-yl)acetamide]"
6,0.045 µM,"CC(=O)Nc1ncc(CN2C[C@@H](Cc3ccc(C)nc3)N(C)C[C@@H]2C)s1 [Example 2-11, N-(5-(((2S,5R)-2,4-dimethyl-5-((6-methylpyridin-3-yl)methyl)piperazin-1-yl)methyl)thiazol-2-yl)acetamide]"
7,11 µM,CC(=O)Nc1ncc(CN2C[C@@H](COc3cc(C)nc(C)c3)N(C(C)=O)C[C@@H]2C)s1 [Example 3-3]
8,0.019 µM,CC(=O)Nc1ncc(CN2C[C@@H](Cc3ncc(F)cn3)NC[C@@H]2C)s1 [Example 2-5]
9,5.6 µM,"CC(=O)Nc1ncc(CN2CCCNC(Cc3ncc(F)cn3)C2)s1 (stereo not drawn) [Example 2-23, N-(5-((3-((5-fluoropyrimidin-2-yl)methyl)-1,4-diazepan-1-yl)methyl)thiazol-2-yl)acetamide]"
10,0.0051 µM,CC(=O)Nc1ncc(CN2C[C@@H](Cc3ncc(F)cn3)OC[C@@H]2C)s1 [Example 1-26]
11,0.2 µM,"CC(=O)Nc1ncc(CN2CCN(C)[C@@H](Cc3cc(C)nc(C)c3)C2)s1 [Example 4-4, (S)—N-(5-((3-((2,6-dimethylpyridin-4-yl)methyl)-4-methylpiperazin-1-yl)methyl)thiazol-2-yl)acetamide]"
12,0.017 µM,"CC(=O)Nc1ncc(CN2C[C@@H](Cc3ncc(F)cn3)N(C)C[C@@H]2C)s1 [Example 2-6, N-(5-(((2S,5R)-5-((5-fluoropyrimidin-2-yl)methyl)-2,4-dimethylpiperazin-1-yl)methyl)thiazol-2-yl)acetamide]"
13,0.034 µM,CC(=O)Nc1ncc(CN2C[C@@H](Cc3cc(C)nc(C)c3)N(C)C[C@@H]2C)s1 [Example 2-10]
14,0.35 µM,"CC(=O)Nc1ncc(CN2CCN[C@@H](Cc3cc(C)nc(C)c3)C2)s1 [Example 4-2, (S)—N-(5-((3-((2,6-dimethylpyridin-4-yl)methyl)piperazin-1-yl)methyl)thiazol-2-yl)acetamide hydrochloride]"
15,0.0098 µM,"CC(=O)Nc1ncc(CN2C[C@@H](Cc3ccnc(C)c3)N(C)C[C@@H]2C)s1 [Example 2-2, N-(5-(((2S,5R)-2,4-dimethyl-5-((2-methylpyridin-4-yl)methyl)piperazin-1-yl)methyl)thiazol-2-yl)acetamide]"
16,> 20 µM,"COc1cc(CC2CN(Cc3cnc(NC(C)=O)s3)CCCN2)ccn1 (stereo not drawn) [Example 2-25, N-(5-((3-((2-methoxypyridin-4-yl)methyl)-1,4-diazepan-1-yl)methyl)thiazol-2-yl)acetamide]"
17,0.68 µM,"CC(=O)Nc1ncc(CN2C[C@@H](Cc3ncc(F)cn3)O[C@@H](C)C2)s1 (racemic) [Example 1-34, N-(5-(((cis)-2-((5-fluoropyrimidin-2-yl)methyl)-6-methylmorpholino)methyl)thiazol-2-yl)acetamide]"
18,> 20 µM,"CC(=O)Nc1ncc(CN2CCN(C)CC(COc3ncc(F)cn3)C2)s1 (stereo not drawn) [Example 3-5, N-(5-((6-(((5-fluoropyrimidin-2-yl)oxy)methyl)-4-methyl-1,4-diazepan-1-yl)methyl)thiazol-2-yl)acetamide]"
19,11 µM,"COc1cc(C[C@H]2CN(Cc3cnc(NC(C)=O)s3)CCO2)ccn1 [Example 1-4, (S)—N-(5-((2-((2-methoxypyridin-4-yl)methyl)morpholino)methyl)thiazol-2-yl)acetamide]"
20,0.11 µM,"CC(=O)Nc1ncc(CN2CCO[C@H](Cc3ccc(C)nc3)C2)s1 [Example 1-19, (R)—N-(5-((2-((6-methylpyridin-3-yl)methyl)morpholino)methyl)thiazol-2-yl)acetamide]"
21,0.26 µM,CC(=O)Nc1ncc(CN2CCO[C@H](Cc3ccnc(C(F)F)c3)C2)s1 [Example 1-13]
22,6.6 µM,CC(=O)Nc1ncc(CN2C[C@@H](Cc3ncc(F)cn3)OC[C@H]2C)s1 [Example 1-27]
23,12 µM,"CC(=O)Nc1ncc(CN2CCCNC(Cc3cc(C)nc(C)c3)C2)s1 (stereo not drawn) [Example 2-28, N-(5-((3-((2,6-dimethylpyridin-4-yl)methyl)-1,4-diazepan-1-yl)methyl)thiazol-2-yl)acetamide]"
24,7 µM,"CC(=O)Nc1ncc(CN2CCN[C@H](Cc3cc(C)nc(C)c3)C2)s1 [Example 4-1, (R)—N-(5-((3-((2,6-dimethylpyridin-4-yl)methyl)piperazin-1-yl)methyl)thiazol-2-yl)acetamide hydrochloride]"
25,0.27 µM,"CC(=O)Nc1ncc(CN2CCO[C@H](Cc3ccnc(OC(C)C)c3)C2)s1 [Example 1-12, (R)—N-(5-((2-((2-isopropoxypyridin-4-yl)methyl)morpholino)methyl)thiazol-2-yl)acetamide]"
26,0.016 µM,"CC(=O)Nc1ncc(CN2CCO[C@H](Cc3ncc(F)cn3)C2)s1 [Example 1-1, (R)—N-(5-((2-((5-fluoropyrimidin-2-yl)methyl)morpholino)methyl)thiazol-2-yl)acetamide]"
27,12 µM,"CC(=O)Nc1ncc(CN2C[C@H](Cc3ncc(F)cn3)OC[C@H]2C)s1 [Example 1-29, N-(5-(((2S,5R)-2-((5-fluoropyrimidin-2-yl)methyl)-5-methylmorpholino)methyl)thiazol-2-yl)acetamide]"

# Continued, compound first:
row,SMILES,IC50
1,"CC(=O)Nc1ncc(C(C)N2CCO[C@H](Cc3ncc(F)cn3)C2)s1 (single isomer, unassigned) [Example 1-23 Peak 2]",0.36 µM
2,"CC(=O)Nc1ncc(CN2CCCOC(Cc3cc(C)nc(C)c3)C2)s1 (single isomer, unassigned) [Example 1-37 Peak 1]",0.031 µM
3,"COc1cc(CC2CN(Cc3cnc(NC(C)=O)s3)CCN2)ccc1F (single isomer, unassigned) [Example 4-6 Peak 2]",4.1 µM
4,"CC(=O)Nc1ncc(CN2CCOCC(Cc3ncc(F)cn3)C2)s1 (single isomer, unassigned) [Example 1-45 Peak 1]",1.6 µM
5,"CC(=O)Nc1ncc(CN2CCNC(Cc3ccnc(C)c3)C2)s1 (single isomer, unassigned) [Example 4-8 Peak 2]",0.49 µM
6,"CC(=O)Nc1ncc(CN2CCNC(Cc3ccc(C)nc3)C2)s1 (single isomer, unassigned) [Example 4-14 Peak 1]",> 20 µM
7,"CC(=O)Nc1ncc(CN2CCOC(C(C)c3ncc(F)cn3)C2)s1 (single isomer, unassigned) [Example 1-25 Peak 2]",0.073 µM
8,"CC(=O)Nc1ncc(CN2CC(C)OC(Cc3ncc(F)cn3)C2)s1 (single isomer, unassigned) [Example 1-35 Peak 1]",0.56 µM
9,"COc1cc(CC2CN(Cc3cnc(NC(C)=O)s3)CCCO2)ccn1 (single isomer, unassigned) [Example 1-41 Peak 2]",0.27 µM
10,"COc1cc(CC2COCCN(Cc3cnc(NC(C)=O)s3)C2)ccn1 (single isomer, unassigned) [Example 1-47 Peak 2]",0.017 µM
11,"CC(=O)Nc1ncc(CN2CCNC(Cc3ncc(F)cn3)C2)s1 (single isomer, unassigned) [Example 2-20 Peak 1]",0.56 µM
12,"COc1cc(CC2CN(Cc3cnc(NC(C)=O)s3)CCCO2)ccn1 (single isomer, unassigned) [Example 1-41 Peak 1]",0.039 µM
